The record followed here is article PMC3014287 (Molecular cell, 2010).

For assay [1], the target named is T1, PKCβII (Homo sapiens, UniProt P05771). The assay is described as follows: […] kinase assay with substrate peptide, Dixon plot. The format is biochemical.
For assay [2], the target named is T1, PKCβII. Described as above. The format is biochemical. This is another data set of the same source.
For assay [3], the target named is AKAP79(1-81)-CKAR (human) (UniProt P24588).

Turning to `O=C1NC(=O)C(c2c[nH]c3ccccc23)=C1c1c[nH]c2ccccc12` [BIS IV, bisindolylmaleimide IV], the “32P kinase assay with substrate peptide, Dixon plot” value on PKCβII [1] was “BIS IV, a bisindolylmaleimide derivative that lacks the dimethylamino group is an uncompetitive inhibitor with respect to the substrate peptide”.
At PKCβII [2], `CN(C)CCCn1cc(C2=C(c3c[nH]c4ccccc34)C(=O)NC2=O)c2ccccc21` [BIS I, bisindolylmaleimide I] registered a Ki of 0.0145 ± 0.0046 µM.
“PKCβII (Calbiochem) (from UniProt P05771-2 1-673) (enzyme)” came in with a T½ of the FRET response of the reporter to Oxo-M in CHO cells (cellular PKC) in assay [3] of 8.3 s.
